Mutagenic call data for five compounds are collected here from PubChem BioAssay AID1259407 (Chemical Carcinogenesis Research Information System (CCRIS), 2018).

The source made the active and inactive calls. The rule behind the calls is not given here.

This series relates to CCRIS mutagenicity, Ames/micronucleus/aberration tests. Description: CCRIS mutagenicity studies.
Where [1] appears, read: Test System: AMES SALMONELLA TYPHIMURIUM, Strain/Indicator: TA98, Metabolic Activation: NONE, Method: PREINCUBATION
[2] abbreviates: Test System: AMES SALMONELLA TYPHIMURIUM, Strain/Indicator: TA100, Metabolic Activation: NONE, Method: PREINCUBATION
Setting [3] is: Test System: AMES SALMONELLA TYPHIMURIUM, Strain/Indicator: TA100, Metabolic Activation: HAMSTER, LIVER, S-9, AROCLOR 1254 (10%), Method: PREINCUBATION
The mark [4] stands for this setting: Test System: AMES SALMONELLA TYPHIMURIUM, Strain/Indicator: TA1535, Metabolic Activation: NONE, Method: PREINCUBATION
Where [5] appears, read: Test System: AMES SALMONELLA TYPHIMURIUM, Strain/Indicator: TA1537, Metabolic Activation: NONE, Method: PREINCUBATION

In the case of `O=[N+]([O-])c1ccc2oc3ccccc3c2c1`, the mutagenic call was “active; positive” (Test System: AMES SALMONELLA TYPHIMURIUM, Strain/Indicator: TA98(1,8-DNP6), Metabolic Activation: NONE, Method: PREINCUBATION); “active; positive” (Test System: AMES SALMONELLA TYPHIMURIUM, Strain/Indicator: TA98(1,8-DNP6), Metabolic Activation: NONE, Method: SUSPENSION); “active; positive” (Test System: AMES SALMONELLA TYPHIMURIUM, Strain/Indicator: TA98(1,8-DNP6), Metabolic Activation: RAT, LIVER, S-9, PCB (5%), Method: PREINCUBATION); “active; positive” (Test System: AMES SALMONELLA TYPHIMURIUM, Strain/Indicator: TA98(NR), Metabolic Activation: NONE, Method: PREINCUBATION); “inactive; negative” (Test System: AMES SALMONELLA TYPHIMURIUM, Strain/Indicator: TA98(NR), Metabolic Activation: NONE, Method: SUSPENSION); “active; positive” (Test System: AMES SALMONELLA TYPHIMURIUM, Strain/Indicator: TA98(NR), Metabolic Activation: RAT, LIVER, S-9 (10%), Method: PREINCUBATION). Besides, the mutagenic call (Test System: AMES SALMONELLA TYPHIMURIUM, Strain/Indicator: TA98(NR), Metabolic Activation: RAT, LIVER, S-9, 3-METHYLCHOLANTHRENE (10%), Method: PREINCUBATION) is “active; positive”; the mutagenic call (Test System: AMES SALMONELLA TYPHIMURIUM, Strain/Indicator: TA98(NR), Metabolic Activation: RAT, LIVER, S-9, BETA-NAPHTHOFLAVONE (10%), Method: PREINCUBATION) was “active; positive”; the mutagenic call (Test System: AMES SALMONELLA TYPHIMURIUM, Strain/Indicator: TA98(NR), Metabolic Activation: RAT, LIVER, S-9, PCB (5%), Method: PREINCUBATION) is “active; positive”; the mutagenic call (Test System: AMES SALMONELLA TYPHIMURIUM, Strain/Indicator: TA98(NR), Metabolic Activation: RAT, LIVER, S-9, PCB (10%), Method: PREINCUBATION) is “active; positive”; the mutagenic call (Test System: AMES SALMONELLA TYPHIMURIUM, Strain/Indicator: TA98(NR), Metabolic Activation: RAT, LIVER, S-9, PHENOBARBITAL (10%), Method: PREINCUBATION) is “active; positive”; the mutagenic call under setting [1] is “active; positive”. Besides, the mutagenic call is, setting by setting: (Test System: AMES SALMONELLA TYPHIMURIUM, Strain/Indicator: TA98, Metabolic Activation: NONE, Method: SUSPENSION) “active; positive”; (Test System: AMES SALMONELLA TYPHIMURIUM, Strain/Indicator: TA98, Metabolic Activation: RAT, LIVER, S-9, PCB (5%), Method: PREINCUBATION) “active; positive”; (Test System: AMES SALMONELLA TYPHIMURIUM, Strain/Indicator: TA98, Metabolic Activation: RAT, LIVER, S-9, PCB, Method: SUSPENSION) “active; positive”; under setting [2], “inactive; negative”; (Test System: AMES SALMONELLA TYPHIMURIUM, Strain/Indicator: TA100, Metabolic Activation: NONE, Method: SUSPENSION) “inactive; negative”; (Test System: AMES SALMONELLA TYPHIMURIUM, Strain/Indicator: TA100, Metabolic Activation: RAT, LIVER, S-9, PCB (5%), Method: PREINCUBATION) “inactive; negative”. The mutagenic call (Test System: AMES SALMONELLA TYPHIMURIUM, Strain/Indicator: TA100, Metabolic Activation: RAT, LIVER, S-9, PCB, Method: SUSPENSION) was “inactive; negative”.
On to `COS(=O)(=O)C(F)(F)F`, for which the mutagenic call was “active; positive” under setting [3]; “active; positive. reevaluation of results: positive” (Test System: MOUSE LYMPHOMA, Strain/Indicator: L5178Y (TK+/TK-), Metabolic Activation: NONE, Method: SUSPENSION/PLATE); “active; positive. reevaluation of results: positive” (Test System: MOUSE LYMPHOMA, Strain/Indicator: L5178Y (TK+/TK-), Metabolic Activation: RAT, LIVER, S-9, AROCLOR 1254, Method: SUSPENSION/PLATE).
As to `CC(O)COC(C)(C)C` (stereo not drawn), the mutagenic call is, setting by setting: (End Point: IN VITRO CHROMOSOMAL ABERRATIONS, Test System: CHO, Metabolic Activation: NONE) “inactive; negative”; (End Point: IN VITRO CHROMOSOMAL ABERRATIONS, Test System: CHO, Metabolic Activation: S-9) “inactive; negative”; (End Point: IN VIVO MICRONUCLEUS, Test System: PERIPHERAL BLOOD ERYTHROCYTES, Species: MOUSE, Strain/Sex: B6C3F1/FEMALE, Route: INHALATION) “active; positive (weak)”; (End Point: IN VIVO MICRONUCLEUS, Test System: PERIPHERAL BLOOD ERYTHROCYTES, Species: MOUSE, Strain/Sex: B6C3F1/MALE, Route: INHALATION) “inactive; negative”; (Test System: AMES SALMONELLA TYPHIMURIUM, Strain/Indicator: TA97, Metabolic Activation: HAMSTER, LIVER, S-9 (30%), AROCLOR 1254, Method: PREINCUBATION) “inactive; negative”; (Test System: AMES SALMONELLA TYPHIMURIUM, Strain/Indicator: TA97, Metabolic Activation: NONE, Method: PREINCUBATION) “active; positive”. The mutagenic call (Test System: AMES SALMONELLA TYPHIMURIUM, Strain/Indicator: TA97, Metabolic Activation: RAT, LIVER, S-9 (30%), AROCLOR 1254, Method: PREINCUBATION) is “inactive; negative”; the mutagenic call (Test System: AMES SALMONELLA TYPHIMURIUM, Strain/Indicator: TA98, Metabolic Activation: HAMSTER, LIVER, S-9 (30%), AROCLOR 1254, Method: PREINCUBATION) is “inactive; negative”; the mutagenic call under setting [1] is “inactive; negative”; the mutagenic call (Test System: AMES SALMONELLA TYPHIMURIUM, Strain/Indicator: TA98, Metabolic Activation: RAT, LIVER, S-9 (30%), AROCLOR 1254, Method: PREINCUBATION) is “inactive; negative”; the mutagenic call (Test System: AMES SALMONELLA TYPHIMURIUM, Strain/Indicator: TA100, Metabolic Activation: HAMSTER, LIVER, S-9 (30%), AROCLOR 1254, Method: PREINCUBATION) was “inactive; negative”; the mutagenic call under setting [2] was “inactive; negative”. Besides, the mutagenic call (Test System: AMES SALMONELLA TYPHIMURIUM, Strain/Indicator: TA100, Metabolic Activation: RAT, LIVER, S-9 (30%), AROCLOR 1254, Method: PREINCUBATION) was “inactive; negative”; the mutagenic call (Test System: AMES SALMONELLA TYPHIMURIUM, Strain/Indicator: TA1535, Metabolic Activation: HAMSTER, LIVER, S-9 (30%), AROCLOR 1254, Method: PREINCUBATION) is “inactive; negative”; the mutagenic call under setting [4] is “inactive; negative”; the mutagenic call (Test System: AMES SALMONELLA TYPHIMURIUM, Strain/Indicator: TA1535, Metabolic Activation: RAT, LIVER, S-9 (30%), AROCLOR 1254, Method: PREINCUBATION) is “inactive; negative”; the mutagenic call under setting [5] is “inactive; negative”.
Take `COc1ccc(CN(CCN(C)C)c2ncccn2)cc1`: the mutagenic call is, setting by setting: (Test System: AMES SALMONELLA TYPHIMURIUM, Strain/Indicator: TA98, Metabolic Activation: HAMSTER, LIVER, S-9, AROCLOR 1254 (10%), Method: PREINCUBATION) “inactive; negative”; under setting [1], “inactive; negative”; (Test System: AMES SALMONELLA TYPHIMURIUM, Strain/Indicator: TA98, Metabolic Activation: RAT, LIVER, S-9, AROCLOR 1254 (10%), Method: PREINCUBATION) “inactive; negative”; under setting [3], “inactive; negative”; under setting [2], “inactive; negative”; (Test System: AMES SALMONELLA TYPHIMURIUM, Strain/Indicator: TA100, Metabolic Activation: RAT, LIVER, S-9, AROCLOR 1254 (10%), Method: PREINCUBATION) “inactive; negative”. Further, the mutagenic call (Test System: AMES SALMONELLA TYPHIMURIUM, Strain/Indicator: TA1535, Metabolic Activation: HAMSTER, LIVER, S-9, AROCLOR 1254 (10%), Method: PREINCUBATION) is “inactive; negative”; the mutagenic call under setting [4] is “inactive; negative”; the mutagenic call (Test System: AMES SALMONELLA TYPHIMURIUM, Strain/Indicator: TA1535, Metabolic Activation: RAT, LIVER, S-9, AROCLOR 1254 (10%), Method: PREINCUBATION) is “inactive; negative”; the mutagenic call (Test System: AMES SALMONELLA TYPHIMURIUM, Strain/Indicator: TA1537, Metabolic Activation: HAMSTER, LIVER, S-9, AROCLOR 1254 (10%), Method: PREINCUBATION) is “inactive; negative”; the mutagenic call under setting [5] is “inactive; negative”; the mutagenic call (Test System: AMES SALMONELLA TYPHIMURIUM, Strain/Indicator: TA1537, Metabolic Activation: RAT, LIVER, S-9, AROCLOR 1254 (10%), Method: PREINCUBATION) was “inactive; negative”.
Regarding `CCCCCCCCCCCC[N+](C)(C)COCCCCCCCCC`, the mutagenic call was “inactive; negative” (Test System: BACILLUS SUBTILIS, Strain/Indicator: H17/REC, Metabolic Activation: NONE, Method: STANDARD PLATE) and “inactive; negative” (Test System: BACILLUS SUBTILIS, Strain/Indicator: M45, Metabolic Activation: NONE, Method: STANDARD PLATE).
